Test [1] deals with first bromodomain of BRD4 (Homo sapiens (Human), UniProt O60885). In words: Bromoscan binding assay BRD4 (1). Conditions: for Kd: Bromoscan, geometric mean where multiple measurements have been made; for Selectivity BRD4(2)/BRD4(1): ratio BRD4(2) Kd / BRD4(1) Kd. The protocol: (§1) Compounds were assayed for binding affinity using bromoscan assays and a phosphodiesterase three assay.
(§2) Bromoscan assays were run by DiscoveRx Corporation. The relevant assay names are BRD4 (1) for the first bromodomain of BRD4 and BRD4 (2) for the second bromodomain of BRD4. Further Bromoscan assays covering other bromodomains may be employed to establish the selectivity profile of a compound of interest. To run the Bromoscan assay, a T7 phage strain displaying the relevant bromodomain was grown in parallel in 24-well blocks in an E. coli host derived from the BL21 strain. E. coli were grown to log-phase and infected with T7 phage from a frozen stock (multiplicity of infection=0.4) and incubated with shaking at 32° C. until lysis (90-150 minutes). The lysates were centrifuged (5,000×g) and filtered (0.2 μm) to remove cell debris. […] The liganded beads were blocked with excess biotin and washed with blocking buffer (SeaBlock (Pierce), 1% BSA (bovine serum albumin), 0.05% Tween 20, 1 mM DTT (dithiothreitol)) to remove unbound ligand and to reduce non-specific phage binding. […] Test compounds were prepared as 1000× stocks in 100% DMSO and subsequently diluted 1:10 in monoethylene glycol (MEG) to create stocks at 100× the screening concentration (resulting stock solution is 10% DMSO/90% MEG). The compounds were then diluted directly into the assays such that the final concentration of DMSO and MEG were 0.1% and 0.9%, respectively. All reactions were performed in polystyrene 96-well plates in a final volume of 0.135 ml. […] The bromodomain concentration in the eluates was measured by qPCR (quantitative real-time polymerase chain reaction). Binding constants (Kds) were calculated with a standard dose-response curve using the Hill equation: Response=Blackground+((Signal-Background)/(1+Kd^Hill Slope/Dose^Hill Slope)). The Hill Slope was set to −1. Curves were fitted using a non-linear least square fit with the Levenberg-Marquardt algorithm.

Test [2] addresses second bromodomain of BRD4 (Homo sapiens (Human), UniProt O60885). In words: Bromoscan binding assay BRD4 (2). Particulars: geometric mean where multiple measurements have been made. Here is the method:
as §1, §2

Data on nine compounds can be found in patent publication US20250382308A1, “COMPOUNDS ACTIVE TOWARDS BROMODOMAINS” (NUEVOLUTION A/S, priority 2022, published 2025).

Where only a bound is given, the exact number is not on record here.

By Kd is commonly meant the equilibrium constant for the complex coming apart. Lower therefore signals higher affinity. As to `COc1cc(NC(=O)c2cc3c(nc2N2C[C@H]4CCO[C@H]4C2)COC3)cc2c(C)cc(=O)[nH]c12` (racemic) [Example 22, N-(8-methoxy-4-methyl-2-oxo-1H-quinolin-6-yl)-2-[rac-(3aR,6aR)-2,3,3a,4,6,6a-hexahydrofuro[2,3-c]pyrrol-5-yl]-5,7-dihydrofuro[3,4-b]pyridine-3-carboxamide], in test [1], the Kd was 170 nM and the “Selectivity BRD4(2)/BRD4(1)” value was 22. In test [2], this compound returned a Kd of 3800 nM.

For `COc1cc(NC(=O)c2cc3c(nc2N2CC4C(C2)C4(F)F)COC3)cc2c(C)cc(=O)[nH]c12` (centres unmarked) [Example 5, 2-(6,6-difluoro-3-azabicyclo[3.1.0]hexan-3-yl)-N-(8-methoxy-4-methyl-2-oxo-1H-quinolin-6-yl)-5,7-dihydrofuro[3,4-b]pyridine-3-carboxamide], the results for the Kd in test [1] and in test [2] were 17 nM and 200 nM, respectively. Besides, the “Selectivity BRD4(2)/BRD4(1)” value in test [1] came out at 12.

For the compound `COc1cc(NC(=O)c2cc3c(nc2N2CC4CC2(C)C4)COC3)cc2c(C)cc(=O)[nH]c12` [Example 4, N-(8-methoxy-4-methyl-2-oxo-1H-quinolin-6-yl)-2-(1-methyl-2-azabicyclo[2.1.1]hexan-2-yl)-5,7-dihydrofuro[3,4-b]pyridine-3-carboxamide], in test [1], binding was characterised by a dissociation constant (Kd) of 29 nM and the “Selectivity BRD4(2)/BRD4(1)” value was more than 172. In test [2], this compound returned a dissociation constant Kd of more than 5000 nM.

As for `COc1cc(NC(=O)c2cc3c(nc2N2CC[C@@H](F)C2)COC3)cc2c(C)cc(=O)[nH]c12` [Example 40, 2-[(3R)-3-fluoropyrrolidin-1-yl]-N-(8-methoxy-4-methyl-2-oxo-1H-quinolin-6-yl)-5,7-dihydrofuro[3,4-b]pyridine-3-carboxamide], in test [1], the Kd came to 11 nM and the “Selectivity BRD4(2)/BRD4(1)” value stood at 14. The Kd in test [2] was determined as 150 nM.

`CCN1Cc2cc(C(=O)Nc3cc(OC)c4[nH]c(=O)cc(C)c4c3)c(N3CCOCC3)nc2C1` [Example 34, 6-ethyl-N-(8-methoxy-4-methyl-2-oxo-1H-quinolin-6-yl)-2-morpholino-5,7-dihydropyrrolo[3,4-b]pyridine-3-carboxamide]: the Kd is 25 nM in test [1] and 800 nM in test [2]. Moreover, the “Selectivity BRD4(2)/BRD4(1)” value in test [1] came to 32.

`COc1cc(NC(=O)c2cc3c(nc2N2C[C@@H](F)[C@@H](F)C2)COC3)cc2c(C)cc(=O)[nH]c12` [Example 42, N-(8-methoxy-4-methyl-2-oxo-1H-quinolin-6-yl)-2-[rac-(3R,4S)-3,4-difluoropyrrolidin-1-yl]-5,7-dihydrofuro[3,4-b]pyridine-3-carboxamide]: in test [1], binding was put at a Kd of 26 nM and the “Selectivity BRD4(2)/BRD4(1)” value is reported as 16. In test [2], this compound had a Kd of 400 nM.

Take `COc1cc2[nH]c(=O)cc(C)c2cc1NC(=O)c1cc2c(nc1N1CCOCC1)COC2` [Example 14, N-(7-methoxy-4-methyl-2-oxo-1H-quinolin-6-yl)-2-morpholino-5,7-dihydrofuro[3,4-b]pyridine-3-carboxamide]: in test [1], the Kd was 26 nM and the “Selectivity BRD4(2)/BRD4(1)” value stood at 15. This compound yielded a Kd in test [2] of 400 nM.

As for `COc1cc(NC(=O)c2cc3c(nc2N2CCC(F)(F)C2)COC3)cc2c(C)cc(=O)[nH]c12` [Example 16, 2-(3,3-difluoropyrrolidin-1-yl)-N-(8-methoxy-4-methyl-2-oxo-1H-quinolin-6-yl)-5,7-dihydrofuro[3,4-b]pyridine-3-carboxamide], the “Selectivity BRD4(2)/BRD4(1)” value in test [1] was 43.

Consider `CCN(CC)c1nc2c(cc1C(=O)Nc1cc(OC)c3[nH]c(=O)cc(C)c3c1)COC2` [Example 27, 2-(diethylamino)-N-(8-methoxy-4-methyl-2-oxo-1H-quinolin-6-yl)-5,7-dihydrofuro[3,4-b]pyridine-3-carboxamide], for which the “Selectivity BRD4(2)/BRD4(1)” value in test [1] was 24.
